System: Hedgehog pathway activity
Test: Shh-Light luciferase reporter assay of Hedgehog pathway activity (Shh-Light2 cells, SAG-stimulated)
Format: cell-based
Conditions: for activity at 2 µM: 2 μM compound, read-out: SHH-light % residual @ 2 μM; for activity at 2 µM / activity at 20 µM: SAG 500 nM; for activity at 20 µM: 20 μM compound, read-out: SHH-light % residual @ 20 μM; for IC50: Table 2, SAG 500 nM, 28-32 hr treatment, read-out: Shh-light IC50
Experimental: To examine the inhibition of dynein 2 in cell-based assays, an established luciferase reporter-based cellular assay of Hedgehog pathway activity was employed [Taipale et al., Nature. 2000; 406(6799): 1005-9]. Signaling in this pathway depends on the function of dynein 2. In this setting, expression of luciferase driven by Hedgehog pathway activity was inhibited by compound 5 with an IC50 value of 0.9±0.5 μM. […] The potencies of these compounds in this cell-based assay match the rank-order of dynein 2 inhibition in vitro. In these assays, Hedgehog pathway activity was stimulated using the Synthetic Agonist of Smoothened (SAG). This compound competes with many Hedgehog pathway inhibitors for binding to Smoothened, a key node in the signaling pathway.
SHH-Light Assay (Steinman et al. eLife 2017; 6:e25174.)
NIH-3T3 cells stably expressing a luciferase reporter downstream of a Gli binding site (Shh-Light2 cells, RRID: CVCL_2721) were maintained in DMEM with 10% bovine calf serum (BCS). Cells were seeded at a density of 30,000 cells/well in 96-well tissue culture-treated plates (Corning, cat #353072) in 100 μL in DMEM+10% BCS, and incubated for 48 hr (Taipale et al., 2000). Wells were washed briefly with PBS. Next […] of low serum media (DMEM+0.5% BCS) containing smoothened agonist (SAG, 500 nM), and either solvent control (0.2% DMSO) or test compound (serial three-fold dilutions of each inhibitor starting from 20 μM) were added to the wells. After 28-32 hr of inhibitor treatment, cells were washed with 50 μL PBS and lysed for >30 min in 30 μL Passive Lysis Buffer (Promega Dual Luciferase kit, cat E1910). 5 uL of each lysate was transferred to white, solid-bottom 96-well plates (Greiner, cat #655075), followed by rapid addition (within 30 s) of 30 μL of Luciferase Assay Reagent using a multichannel pipette. Luminescence for each condition was read using a Synergy Neo plate reader (5 s integration time per well). Cell line identity was confirmed by measurement of the degree of response to Hedgehog pathway stimulation by the synthetic agonist SAG and using previously published values from our groups and others as references (Firestone et al., 2012; Hyman et al., 2009).

SMILES	activity at 2 µM	activity at 20 µM	IC50
N#Cc1ccc2[nH]c3c(C#N)c(C4(c5ccc(Cl)cc5)CC4)nn3c(=O)c2c1 [Example 10, 2-[1-(4-Chlorophenyl)cyclopropyl]-9-oxo-4H-pyrazolo[5,1-b]quinazoline-3,7-dicarbonitrile]	70.1%	10%	
N#Cc1c(C2(c3ccc(Cl)cc3)CC2)nn2c(=O)c3cc(C(F)(F)F)ccc3[nH]c12 [Example 11, 2-[1-(4-Chlorophenyl)cyclopropyl]-9-oxo-7-(trifluoromethyl)-4H-pyrazolo[5,1-b]quinazoline-3-carbonitrile]	17.7%	-4.1%	730 nM
N#Cc1c(C2CCC(c3ccc(Cl)cc3)CC2)nn2c(=O)c3cc(C4CC4)ccc3[nH]c12 (stereo not drawn) [Example 13, 2-[4-(4-Chlorophenyl)cyclohexyl]-7-cyclopropyl-9-oxo-4H-pyrazolo[5,1-b]quinazoline-3-carbonitrile]	-3.1%	-3.6%	340 nM
N#Cc1c(C2(c3ccc(Cl)cc3)CC2)nn2c(=O)c3cc(C4CC4)ccc3[nH]c12 [Example 14, 2-[1-(4-Chlorophenyl)cyclopropyl]-7-cyclopropyl-9-oxo-4H-pyrazolo[5,1-b]quinazoline-3-carbonitrile]	-2.3%	-1.8%	470 nM
N#Cc1c(C2CCC(c3ccc(Cl)cc3)CC2)nn2c(=O)c3cc(C(F)(F)F)ccc3[nH]c12 (stereo not drawn) [Example 15, 2-[4-(4-Chlorophenyl)cyclohexyl]-9-oxo-7-(trifluoromethyl)-4H-pyrazolo[5,1-b]quinazoline-3-carbonitrile]	-3.1%	-4%	320 nM
N#Cc1c(C2CCN(c3ccc(Cl)cc3)CC2)nn2c(=O)c3cc(C(F)(F)F)ccc3[nH]c12 [Example 16, 2-[1-(4-Chlorophenyl)-4-piperidyl]-9-oxo-7-(trifluoromethyl)-4H-pyrazolo[5,1-b]quinazoline-3-carbonitrile]	33.7%	-4.1%	
N#Cc1c(C2CCC(c3ccc(Cl)cc3)CC2)nn2c(=O)c3cc(Cl)ccc3[nH]c12 (stereo not drawn) [Example 17, 7-Chloro-2-[4-(4-chlorophenyl)cyclohexyl]-9-oxo-4H-pyrazolo[5,1-b]quinazoline-3-carbonitrile]	-2.3%	-3.9%	600 nM
N#Cc1c(C2(c3ccc(Cl)cc3)CC2)nn2c(=O)c3cc(Cl)ccc3[nH]c12 [Example 18, 7-Chloro-2-[1-(4-chlorophenyl)cyclopropyl]-9-oxo-4H-pyrazolo[5,1-b]quinazoline-3-carbonitrile]	-0.5%	2.8%	760 nM
N#Cc1c(C2(c3ccc(Cl)cc3)CC2)nn2c(=O)c3cc(F)ccc3[nH]c12 [Example 19, 2-[1-(4-Chlorophenyl)cyclopropyl]-7-fluoro-9-oxo-4H-pyrazolo[5,1-b]quinazoline-3-carbonitrile]	1.4%	-0.4%	1600 nM
N#Cc1c(N2CCC(c3ccc(Cl)cc3)CC2)nn2c(=O)c3cc(Cl)ccc3[nH]c12 [Example 20, 7-Chloro-2-[4-(4-chlorophenyl)-1-piperidyl]-9-oxo-4H-pyrazolo[5,1-b]quinazoline-3-carbonitrile]	-2.5%	-3.1%	330 nM
N#Cc1c(C2CCN(c3ccc(Cl)cc3)CC2)nn2c(=O)c3cc(Cl)ccc3[nH]c12 [Example 21, 7-Chloro-2-[1-(4-chlorophenyl)-4-piperidyl]-9-oxo-4H-pyrazolo[5,1-b]quinazoline-3-carbonitrile]	-2%	-2.6%	
N#Cc1c(C2CCC(c3ccc(Cl)cc3)CC2)nn2c(=O)c3cc(Br)ccc3[nH]c12 (stereo not drawn) [Example 22, 7-Bromo-2-[4-(4-chlorophenyl)cyclohexyl]-9-oxo-4H-pyrazolo[5,1-b]quinazoline-3-carbonitrile]	-2.9%	-2.8%	670 nM
N#Cc1c(OC2CCN(c3ncc(Cl)cn3)CC2)nn2c(=O)c3cc(Cl)ccc3[nH]c12 [Example 23, 7-Chloro-2-[[1-(5-chloropyrimidin-2-yl)-4-piperidyl]oxy]-9-oxo-4H-pyrazolo[5,1-b]quinazoline-3-carbonitrile]	8.2%	-2.9%	
N#Cc1c(OC2CCN(C(=O)c3ccc(Cl)cc3)CC2)nn2c(=O)c3cc(Cl)ccc3[nH]c12 [Example 24, 7-Chloro-2-[[1-(4-chlorobenzoyl)-4-piperidyl]oxy]-9-oxo-4H-pyrazolo[5,1-b]quinazoline-3-carbonitrile]	72.4%	1.6%	
N#Cc1c(OC2CCN(c3ccc(Cl)cn3)CC2)nn2c(=O)c3cc(Cl)ccc3[nH]c12 [Example 25, 7-Chloro-2-[[1-(5-chloro-2-pyridyl)-4-piperidyl]oxy]-9-oxo-4H-pyrazolo[5,1-b]quinazoline-3-carbonitrile]	41.7%	-3.8%	
NC(=O)c1c(C2CCC(c3ccc(Cl)cc3)CC2)nn2c(=O)c3ccccc3[nH]c12 (stereo not drawn) [Example 26, 2-[4-(4-Chlorophenyl)cyclohexyl]-9-oxo-4H-pyrazolo[5,1-b]quinazoline-3-carboxamide]	68.8%	-4.5%	
NC(=O)c1c(CCCOc2ccc(Cl)cc2)nn2c(=O)c3ccccc3[nH]c12 [Example 28, 2-[3-(4-Chlorophenoxy)propyl]-9-oxo-4H-pyrazolo[5,1-b]quinazoline-3-carboxamide]	68.9%	40.3%	
NC(=O)c1c(C2(c3ccc(Cl)cc3)CC2)nn2c(=O)c3ccccc3[nH]c12 [Example 30, 2-[1-(4-Chlorophenyl)cyclopropyl]-9-oxo-4H-pyrazolo[5,1-b]quinazoline-3-carboxamide]	101%	22.1%	
NC(=O)c1c(-c2ccc(Cl)cc2Cl)nn2c(=O)c3ccccc3[nH]c12 [Example 32, 2-(2,4-Dichlorophenyl)-9-oxo-4H-pyrazolo[5,1-b]quinazoline-3-carboxamide]		57.5%	
N#Cc1c(-c2ccc(Cl)cc2Cl)nn2c(=O)c3ccccc3[nH]c12 [Example 33, 2-(2,4-Dichlorophenyl)-9-oxo-4H-pyrazolo[5,1-b]quinazoline-3-carbonitrile]		-3.6%	2000 nM
NC(=O)c1c(-c2ccc(Cl)cc2Cl)nn2c(=O)c3ccc(Cl)cc3[nH]c12 [Example 34, 6-Chloro-2-(2,4-dichlorophenyl)-9-oxo-4H-pyrazolo[5,1-b]quinazoline-3-carboxamide]		-3.4%	3600 nM
N#Cc1c(-c2ccc(Cl)cc2Cl)nn2c(=O)c3ccc(Cl)cc3[nH]c12 [Example 35, 6-Chloro-2-(2,4-dichlorophenyl)-9-oxo-4H-pyrazolo[5,1-b]quinazoline-3-carbonitrile]			2100 nM
COc1cccc2c(=O)n3nc(-c4ccc(Cl)cc4Cl)c(C#N)c3[nH]c12 [Example 36, 2-(2,4-Dichlorophenyl)-5-methoxy-9-oxo-4H-pyrazolo[5,1-b]quinazoline-3-carbonitrile]			10000 nM
COc1cccc2[nH]c3c(C#N)c(-c4ccc(Cl)cc4Cl)nn3c(=O)c12 [Example 37, 2-(2,4-Dichlorophenyl)-8-methoxy-9-oxo-4H-pyrazolo[5,1-b]quinazoline-3-carbonitrile]	100%	18%	
COc1c(Cl)ccc2c(=O)n3nc(-c4ccc(Cl)cc4Cl)c(C#N)c3[nH]c12 [Example 38, 6-Chloro-2-(2,4-dichlorophenyl)-5-methoxy-9-oxo-4H-pyrazolo[5,1-b]quinazoline-3-carbonitrile]	74%	19%	2000 nM
COc1ccc2[nH]c3c(C(N)=O)c(-c4ccc(Cl)cc4Cl)nn3c(=O)c2c1 [Example 39, 2-(2,4-Dichlorophenyl)-7-methoxy-9-oxo-4H-pyrazolo[5,1-b]quinazoline-3-carboxamide]		121%	13000 nM
COc1ccc2[nH]c3c(C#N)c(-c4ccc(Cl)cc4Cl)nn3c(=O)c2c1 [Example 40, 2-(2,4-Dichlorophenyl)-7-methoxy-9-oxo-4H-pyrazolo[5,1-b]quinazoline-3-carbonitrile]	37%	14%	594 nM
NC(=O)c1c(COc2ccc(Cl)cc2)nn2c(=O)c3ccccc3[nH]c12 [Example 41, 2-[(4-Chlorophenoxy)methyl]-9-oxo-4H-pyrazolo[5,1-b]quinazoline-3-carboxamide]	73.7%		
